In the NIST ThermoML archive (doi:10.1016/j.jct.2004.10.011):

Experiment: xn = mol fraction of the nth substance listed
Details: Liquid, Vibrating tube method

CCC(=O)c1ccccc1 [ethyl phenyl ketone] + Cc1ccccc1
mass density [kg/m3]
Details	x2 = 0	x2 = 0.1048	x2 = 0.2025	x2 = 0.3006	x2 = 0.3991	x2 = 0.4998	x2 = 0.6004	x2 = 0.7036	x2 = 0.8028	x2 = 0.902
298.15 K, 100 kPa	1005.3	993.5	982.2	970.2	957.5	943.76	929.02	913.4	897.3	880.1
298.15 K, 2130 kPa	1006.4	994.6	983.3	971.3	958.6	944.95	930.27	914.7	898.6	881.5
298.15 K, 4150 kPa	1007.5	995.8	984.5	972.6	959.9	946.25	931.61	916	900	882.9
298.15 K, 6180 kPa	1008.7	996.9	985.7	973.8	961.2	947.55	932.93	917.4	901.4	884.4
298.15 K, 8210 kPa	1009.8	998.1	986.9	975	962.4	948.81	934.23	918.7	902.8	885.8
298.15 K, 10230 kPa	1010.9	999.2	988	976.1	963.6	950.05	935.53	920	904.2	887.2
298.15 K, 11250 kPa	1011.5	999.8	988.6	976.7	964.2	950.67	936.16	920.7	904.8	887.9
298.15 K, 12260 kPa	1012.1	1000.3	989.2	977.3	964.8	951.26	936.78	921.3	905.5	888.6
298.15 K, 14290 kPa	1013.2	1001.5	990.3	978.5	966	952.5	938.05	922.6	906.8	890
298.15 K, 16310 kPa	1014.3	1002.6	991.4	979.6	967.1	953.69	939.26	923.8	908.1	891.3
298.15 K, 18340 kPa	1015.3	1003.7	992.5	980.7	968.3	954.88	940.49	925.1	909.4	892.6
298.15 K, 20370 kPa	1016.4	1004.8	993.6	981.8	969.4	956.04	941.68	926.3	910.7	893.9
298.15 K, 22390 kPa	1017.5	1005.8	994.7	983	970.5	957.19	942.87	927.5	911.9	895.2
298.15 K, 24420 kPa	1018.5	1006.9	995.8	984	971.7	958.35	944.05	928.7	913.1	896.5
298.15 K, 26450 kPa	1019.5	1007.9	996.8	985.1	972.7	959.45	945.21	929.9	914.3	897.8
298.15 K, 28470 kPa	1020.5	1009	997.9	986.2	973.8	960.58	946.36	931.1	915.5	899
298.15 K, 29490 kPa	1021	1009.5	998.4	986.7	974.3	961.14	946.92	931.7	916.1	899.6
298.15 K, 30500 kPa	1021.6	1010	998.9	987.2	974.9	961.68	947.48	932.2	916.7	900.2
298.15 K, 32530 kPa	1022.5	1011	999.9	988.3	976	962.77	948.6	933.4	917.9	901.4
298.15 K, 34550 kPa	1023.5	1012	1000.9	989.3	977	963.83	949.68	934.5	919	902.6
298.15 K, 36580 kPa	1024.5	1013	1001.9	990.3	978	964.89	950.78	935.6	920.2	903.8
298.15 K, 38600 kPa	1025.5	1013.9	1002.9	991.3	979	965.93	951.82	936.7	921.2	904.9
298.15 K, 39620 kPa	1025.9	1014.4	1003.4	991.8	979.6	966.46	952.38	937.2	921.8	905.2
308.15 K, 100 kPa	996.8	984.8	973.6	961.5	948.7	934.98	920.13	904.3	888.2	871
308.15 K, 2130 kPa	998	986	974.8	962.8	950	936.3	921.52	905.8	889.7	872.5
308.15 K, 4150 kPa	999.2	987.3	976.1	964.1	951.3	937.68	922.91	907.2	891.1	874.1
308.15 K, 6180 kPa	1000.4	988.5	977.3	965.3	952.6	939.04	924.29	908.7	892.6	875.6
308.15 K, 8210 kPa	1001.6	989.7	978.5	966.6	953.9	940.34	925.65	910.1	894	877.1
308.15 K, 10230 kPa	1002.8	990.9	979.8	967.8	955.2	941.64	927	911.4	895.5	878.6
308.15 K, 11250 kPa	1003.4	991.5	980.4	968.4	955.7	942.3	927.66	912.1	896.2	879.3
308.15 K, 12260 kPa	1003.9	992.1	981	969	956.4	942.94	928.33	912.8	896.9	880
308.15 K, 14290 kPa	1005.1	993.3	982.2	970.3	957.6	944.22	929.64	914.1	898.3	881.5
308.15 K, 16310 kPa	1006.2	994.4	983.3	971.4	958.9	945.46	930.91	915.4	899.6	882.9
308.15 K, 18340 kPa	1007.3	995.5	984.5	972.6	960	946.72	932.19	916.8	901	884.3
308.15 K, 20370 kPa	1008.4	996.7	985.6	973.8	961.2	947.92	933.45	918	902.3	885.6
308.15 K, 22390 kPa	1009.5	997.8	986.7	974.9	962.4	949.14	934.71	919.3	903.6	887
308.15 K, 24420 kPa	1010.6	998.9	987.8	976	963.6	950.33	935.93	920.6	904.9	888.3
308.15 K, 26450 kPa	1011.7	1000	988.9	977.2	964.7	951.5	937.14	921.8	906.2	889.7
308.15 K, 28470 kPa	1012.8	1001	990	978.3	965.9	952.65	938.32	923	907.4	891
308.15 K, 29490 kPa	1013.2	1001.6	990.6	978.8	966.4	953.24	938.92	923.6	908	891.6
308.15 K, 30500 kPa	1013.8	1002.1	991.1	979.4	967	953.82	939.51	924.2	908.7	892.2
308.15 K, 32530 kPa	1014.8	1003.2	992.2	980.5	968.1	954.96	940.68	925.4	909.9	893.5
308.15 K, 34550 kPa	1015.8	1004.2	993.2	981.5	969.2	956.07	941.83	926.6	911.1	894.7
308.15 K, 36580 kPa	1016.8	1005.2	994.3	982.6	970.2	957.16	942.97	927.7	912.3	896
308.15 K, 38600 kPa	1017.9	1006.2	995.3	983.6	971.3	958.24	944.07	928.9	913.4	897.2
308.15 K, 39620 kPa	1018.3	1006.7	995.8	984.1	971.9	958.83	944.64	929.5	914	897.8
